Test results from patent US7378111B2, “Regulation of GSK-3α activity for the treatment or prevention of Alzheimer's disease” (The Trustees of the University of Pennsylvania, priority 2002, dated 2008).
Numbered stars: 1 amine (or outer) side, 2 acyl side, 3 side chain; on linkers, the order of the positions; unused ones are H or OH. Square brackets hold non-standard residues; d marks the D form. Peptide text beside a SMILES is read from it. * marks the point of attachment. X1 = CC(N[*:1])C(=O)C(F)(F)C(=O)[*:2]; Boc = CC(C)(C)OC(=O)*

Columns and labels:
[1] = test system: γ-secretase cleavage of APP in CHO-APP695 cells; test: 35S-methionine labeling, immunoprecipitation and SDS-PAGE of secreted Aβ, APP holoprotein and APP C-terminal fragments; assay type: cell-based, Chinese hamster; conditions: 5 mM LiCl or 100 μM DFK-167 for 24 hours
Experimental: To visualize the APP fragments, CHO695 cells plated on 6-well dishes were methionine-deprived for 30 minutes by incubation in methionine-free DMEM (Life Technologies, Inc., Grand Island, N.Y.) before adding 500 μCi ^35S-methionine (Perkin Elmer Life Sciences, Inc., Boston Mass.) per ml of DMEM with 5% dialyzed FBS (Invitrogen) and mg/ml L-proline for 2.5 hours. Medium was collected and cells (2 wells/sample) were rinsed twice with PBS (phosphate buffered saline), then scraped into RIPA buffer (a standard immunoprecipitation buffer, see, Harlow and Lane (eds.), In Antibodies: a laboratory manual, Cold Spring Harbor Laboratory Press, NY (1988)). Lysates were sonicated and centrifuged at 100,000×g for 20 minutes. Using protein A/G agarose beads (Santa Cruz Biotechnologies, Santa Cruz, Calif.), media was immunoprecipitated with the antibody BAN-50 (Suzuki et al., 1994) that recognizes Aβ amino acids 1-10, and cell lysates were immunoprecipitated with antibody 2493 (Lee et al., J. Biol. Chem. 278:[…] (2003)), which is a rabbit polyclonal antibody that recognizes the C-terminus of APP. Proteins were resolved by electrophoresis on 10/16% step gradient Tris-tricine polyacrylamide gels. Gels were fixed in 50% methanol+5% glycerol, dried, and exposed to a Phosphorlmager screen. […]

[2] = test system: Aβ40 and Aβ42 production in CHO-APP695 cells; test: Secreted Aβ40 and Aβ42 from CHO-APP695 cells, sandwich ELISA normalized to intracellular full-length APP; assay type: cell-based, Chinese hamster
Experimental: To investigate the role of GSK-3 in the production of peptides Aβ40 and Aβ42, Chinese hamster ovary (CHO) cells stably expressing APP (CHO-APP695) were treated with lithium chloride (LiCl), which is a direct inhibitor of GSK-3α and β (Phiel et al., 2001). CHO695 cells (available commercially, e.g., American Type Culture Collection (ATCC), Manassas, Va.) were maintained in culture in MEMα+5% fetal bovine serum (FBS) (e.g., BioWhittaker, Walkersville, Md.) with added penicillin/streptomycin and glutamine. Stocks of lithium chloride were prepared in sterile water. To quantify the Aβ40 and Aβ42 secretion following treatment with LiCl, the CHO-APP695 cells were plated in 6-well dishes at a density of 5×10^5 cells per well. LiCl was added to the cells in fresh medium, and media and cells were collected 24 hours later. Aβ determinations from the media were made by sandwich ELISA in femtomoles using the method of Suzuki et al., Science 264:1336-1340 (1994).
For comparison purposes, the results were normalized to levels of intracellular full-length APP. APP levels were quantified by SDS-PAGE followed by western immunoblotting with the amino-terminal APP antibody Karen (Turner et al., J. Biol. Chem. 271:8966-8970 (1996)), and visualized using ^125I-labelled secondary antibodies by Phosphorlmager analysis and ImageQuant software (Amersham Biosciences Corp, Piscataway, N.J.).
Stocks of kenpaullone (Calbiochem, La Jolla, Calif.) were prepared in DMSO. Secreted labeled Aβ secreted from CHO-APP695 cells was obtained as described in the preceding examples. Drugs were added to fresh medium, and medium and cells were collected, as described above, 24 hours later. Immunoprecipitates from the medium were SDS-PAGE separated and Phosphorlmager visualized.
Stocks of roscovitine (Calbiochem) were prepared in DMSO.

GSK-3 [3] = test: β-catenin/Tcf-dependent luciferase reporter (OT-Luc / Lef-OT) in CHO-APP695 cells; assay type: cell-based, Chinese hamster; set-up: dose or concentration left out as unconfirmed; conditions: FIG. 2c
Experimental: CHO-APP695 cells were transfected with a β-catenin-responsive reporter construct, OT-luciferase (OT-Luc) (shown in FIG. 2c as light bars), or a mutated reporter, OF-luciferase (OF-Luc) (shown in FIG. 2c as dark bars). OT-luciferase was provided by K. Kinzler and B Vogelstein.
After transfection, cells were treated with lithium (at concentrations of 0.5 mM, 2.0 mM and 5 mM LiCl, respectively), kenpaullone (at concentrations of […]) or roscovitine (at concentrations of […]) for 24 hours. Cells were harvested and luciferase assays performed.

[4] = test system: cyclin-dependent kinases (cdks); conditions: in vitro; cited from earlier work
GSK-3 [5] = test: β-catenin protein accumulation by western blot in CHO-APP695 cells; assay type: cell-based, Chinese hamster; conditions: kenpaullone 0.5, 2.0, 5.0 μM; LiCl 0.5, 2.0, 5.0 mM; FIG. 2b
Experimental: This was confirmed by western blot, in CHO-APP695 cells treated with kenpaullone (tested at concentrations of 0.5 μM, 2.0 μM and 5.0 μM, respectively) or lithium (0.5 mM, 2.0 mM and 5.0 mM LiCl) as shown in FIG. 2b. Roscovitine was added as a control (tested at concentrations of 0.5 μM, 2.0 μM and 5.0 μM, respectively) in FIG. 2b, as had been in the study summarized in FIG. 2a. A western blot for actin is was used as a loading control (see FIG. 2b).

GSK-3α = test: siRNA knock-down, GSK-3α protein by western blot in CHO-APP695 cells; assay type: cell-based, Chinese hamster
Experimental: (§1) CHO-APP695 cells were transfected with short interfering RNAs (siRNAs) directed against GSK-3α and GSK-3β as follows. RNA oligonucleotides were synthesized by Dharmacon, Inc. (Lafayette, Colo.) Sequences used were:
(§2) The dsRNA was produced using conditions described in Elbashir et al., 2001, supra. The siRNA was transfected into the CHO-APP695 cells plated in 6-well dishes using GenePORTER transfection reagent. The siRNA (25 nM) was co-transfected with 2 μg plasmid DNA. The siRNA against pGL3-luciferase (Pp-Luc) represents control transfection. […] Following transfection, the cells were cultured and harvested 48 hours later. GSK-3α and GSK-3β protein levels were examined using an antibody that recognized both GSK-3 isoforms (Calbiochem), and western blotted as above.

[6] = test system: Aβ40 and Aβ42 production in CHO-APP695 cells; test: Aβ levels secreted from siRNA transfected CHO-APP695 cells; assay type: cell-based, Chinese hamster; conditions: siRNA 25 nM, 48 hours
Experimental: as §2
As graphically presented in FIG. 3b, Aβ levels (Aβ40 shown in light bars; […] shown in dark bars) secreted from siRNA and transfected cells in a representative experiment, were assessed as in FIG. 1. Error bars represent standard deviation. The experiment was repeated six times with similar results. As a result, the selective reduction of GSK-3 a protein decreased Aβ40 and Aβ42 levels by 45% and 43%, respectively (FIG. 3b). Asterisks indicate a significant difference from control, as determined by one-way ANOVA (p<0.05).

GSK-3β = test: siRNA knock-down, GSK-3β protein by western blot in CHO-APP695 cells; assay type: cell-based, Chinese hamster; conditions: siRNA 25 nM, harvested 48 hours after transfection
Experimental: as §1, §2

For `CCC(C)C(NC(=O)C(NC(=O)OC(C)(C)C)C(C)C)C(=O)NC(C)C(=O)C(F)(F)C(=O)NC(C(=O)NC(C(=O)OC)C(C)CC)C(C)C` (stereo not drawn) [DFK-167] (Boc-VI[X1]VI-OMe; configuration not given here), the “steady-state levels of secreted Aβ peptides” value ([1]; FIG. 1b) was “dramatically reduce” and the “accumulation of APP C-terminal fragments (CTFs)” value ([1]; FIG. 1c) was “accumulation of APP CTFs”.

With `[Cl-].[Na+]` [NaCl, sodium chloride] the “effect on APP processing” value ([2]; 24 hours, FIG. 1a) was “no effect”.

For `O=C1Cc2c([nH]c3ccc(Br)cc23)-c2ccccc2N1` [kenpaullone], the “activation of β-catenin/Tcf-dependent reporter Lef-OT” value (GSK-3 [3]) was “activation”, the “reduction of Aβ40 and Aβ42 secretion” value ([2]; 2.0 μM, 24 hours) was 50% and the “reduction of Aβ40 and Aβ42 secretion” value ([2]; 5.0 μM, 24 hours) was “greater than 90%”. For the same compound, the “concentration needed for cdk inhibition relative to GSK-3 inhibition” value [4] was “at least 20 fold” and the “accumulation of β-catenin protein (GSK-3 inhibition in cells)” value (GSK-3 [5]) was “accumulation of β-catenin protein”.

For `CC[C@H](CO)Nc1nc(NCc2ccccc2)c2ncn(C(C)C)c2n1` [roscovitine], the “effect on Aβ40 and Aβ42” value ([2]; 2.0 μM and 5.0 μM, FIG. 2a) was “no effect”.

For “GSK-3α siRNA: dsRNA of SEQ ID NO:5 (sense) and SEQ ID NO:6 (antisense) directed against GSK-3α (sense UUCUACUCCAGUGGUGAGA; antisense UCUCACCACUGGAGUAGAA; listed as RNA, chemistry not fully specified)”, the GSK-3α protein level (GSK-3α; siRNA 25 nM, harvested 48 hours after transfection) was “selectively reduces”, the “decrease of secreted Aβ40 level” value ([6]; FIG. 3b) was 45% and the “decrease of secreted Aβ42 level” value ([6]; FIG. 3b) was 43%.

For “GSK-3β directed siRNA: dsRNA of SEQ ID NO:3 (sense) and SEQ ID NO:4 (antisense) directed against GSK-3β (sense AUCUUUGGAGCCACUGAUU; antisense AAUCAGUGGCUCCAAAGAU; listed as RNA, chemistry not fully specified)”, the GSK-3β protein level (GSK-3β) was “selectively reduces” and the “levels of secreted Aβ40 and Aβ42” value [6] was “modest increase”.

With “control siRNA: siRNA against pGL3-luciferase (Pp-Luc), SEQ ID NO:1 and 2, control transfection (chain 1 CUUACGCUGAGUACUUCGA; chain 2 UCGAAGUACUCAGCGUAAG; listed as RNA, chemistry not fully specified)” the GSK-3 expression (GSK-3α; control siRNA, both GSK-3 isoforms, FIG. 3a) was “no effect”.
